Measured values published in BindingDB's records for doi:10.1007/bf00965909 (Biological Research Center of Hungarian Academy of Sciences, 1990).
“And” between values parts separate entries of the source, which are not always exact repeats. Identical values can stand only once.

Legend:
[1] = target: kappa-type opioid receptor isoform 1 (Xenopus tropicalis, UniProt F7A0F2)
[2] = target: Kappa-type opioid receptor (Rattus norvegicus, UniProt P34975)
Sequence of Kappa-type opioid receptor (P34975 whole entry): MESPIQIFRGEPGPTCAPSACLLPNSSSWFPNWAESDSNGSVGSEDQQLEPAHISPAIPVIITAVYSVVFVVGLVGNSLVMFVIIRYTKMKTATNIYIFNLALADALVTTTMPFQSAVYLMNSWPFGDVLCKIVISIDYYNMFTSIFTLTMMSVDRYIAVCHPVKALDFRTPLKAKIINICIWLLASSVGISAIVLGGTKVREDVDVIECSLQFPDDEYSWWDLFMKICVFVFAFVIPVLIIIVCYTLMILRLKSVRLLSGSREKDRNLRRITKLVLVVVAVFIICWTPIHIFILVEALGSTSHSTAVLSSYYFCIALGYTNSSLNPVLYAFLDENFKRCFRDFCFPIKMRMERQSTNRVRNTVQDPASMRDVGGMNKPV

Sequence of kappa-type opioid receptor isoform 1 (F7A0F2 whole entry, canonical isoform): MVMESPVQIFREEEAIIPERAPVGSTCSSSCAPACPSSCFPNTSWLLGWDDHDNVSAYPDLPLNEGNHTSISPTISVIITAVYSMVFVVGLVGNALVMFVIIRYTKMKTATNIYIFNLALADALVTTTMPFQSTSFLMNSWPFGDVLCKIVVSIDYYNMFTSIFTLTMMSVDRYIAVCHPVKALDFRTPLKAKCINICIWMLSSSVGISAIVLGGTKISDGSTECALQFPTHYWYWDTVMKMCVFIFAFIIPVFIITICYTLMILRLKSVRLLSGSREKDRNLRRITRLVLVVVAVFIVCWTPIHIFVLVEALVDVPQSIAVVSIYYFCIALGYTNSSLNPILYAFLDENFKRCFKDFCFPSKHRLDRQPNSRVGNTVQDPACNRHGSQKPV

Compound | Ki [1] | Ki [2]
CC1[C@H]2Cc3ccc(O)cc3[C@]1(C)CCN2C[C@@H]1CCCO1 (stereo partly drawn) [(+)-alpha-(1R,5R,9R)-5,9-Dimethyl-2-L-tetrahydrofurfuryl)-2'-hydroxy-6,7-benzomorphan] | 5400 nM | 
CC1[C@H]2Cc3ccc(O)cc3[C@]1(C)CCN2C[C@H]1CCCO1 (stereo partly drawn) [CAS_57236-85-8] | 4.8 nM | 
CC[C@H](C)[C@H](NC(=O)[C@H](CCCNC(=N)N)NC(=O)[C@H](CCCNC(=N)N)NC(=O)[C@H](CC(C)C)NC(=O)[C@H](Cc1ccccc1)NC(=O)CNC(=O)CNC(=O)[C@@H](N)Cc1ccc(O)cc1)C(=O)N[C@@H](CCCNC(=N)N)C(=O)N1CCC[C@H]1C(=O)N[C@@H](CCCCN)C(=O)N[C@@H](CC(C)C)C(=O)N[C@@H](CCCCN)C(=O)O [Dynorphin A (1-13)] | 12 nM and 3.1 nM | 57 nM
[N-]=[N+]=N[C@@H]1CC[C@H]2[C@H]3Cc4ccc(O)c5c4[C@@]2(CCN3CC2CC2)[C@@H]1O5 [N-cyclopropylmethylnorazidomorphine] | 0.1 nM | 0.1 nM and 0.2 nM and 0.3 nM
C[C@@H](NC(=O)[C@@H](N)Cc1ccc(O)cc1)C(=O)NCC(=O)N(C)[C@@H](Cc1ccccc1)C(=O)NCCO [[tyrosyl-3,5-3H(N)]-D-Ala2-Mephe4-glyol5-enkephalin] | 59 nM and 360 nM and 470 nM | 
H-YGGFMTSEKSQTPLVTLFKNAIVKNAHKKGQ-OH [Beta-Endorphin] |  | 2.3 nM
